Results: patent US20230293438A1, “INJECTABLE DRUG-RELEASING MICROPOROUS ANNEALED PARTICLE SCAFFOLDS FOR TREATING MYOCARDIAL INFARCTION” (THE REGENTS OF THE UNIVERSITY OF CALIFORNIA, priority 2020, published 2023)

Experiments:
[1] = tested on: neonatal rat cardiomyocytes; experiment: Cardiomyocyte viability (live/dead assay); type: cell-based; settings: 120 h, after 5 days in vitro culture, drugs in medium (20 µM), control cells 25 %
Description: (§1) Cell isolation: Primary neonatal rat cardiomyocytes and fibroblasts were isolated from the hearts of 1-2 day old Sprague-Dawley rat pups as described previously with minor modifications. Briefly, the cardiac tissue was minced and digested with 80 units/mL collagenase II (Worthington) and 0.8 mg/mL pancreatin (Sigma) at 37° C. in a water bath. Neonatal calf serum (NCS) was applied to inactivate enzymatic activity in the digested cell mixture. The cell solution was filtered through 100 µm mesh and centrifuged at 2200 rpm for 3 minutes. The cell pellets were suspended in 1 mL NCS and further separated by Percoll density gradient centrifugation. […]
Cell culture and evaluation of drug effects in vitro: The drug effects on cardiomyocyte viability and proliferation were evaluated. Isolated cardiomyocytes were calculated and seeded on 0.1% gelatin-coated twenty-four well tissue culture plate with a density of 20, 000 cells/cm^2, and cultured at 37° C. in a humidified, 5% CO2 incubator overnight in DMEM/Medium 199 (4/1) containing 10% FBS, 1% NEAAs and 1% P/S. The next day, the culture medium was replaced by fresh medium containing 20 µM F, R or their combination. […] A live/dead kit (Invitrogen) was for cell viability assay, and images were taken using inverted microscope fluorescence microscopy (Zeiss Axio Observer Z1) to determine the cell numbers and the percentage of dead cells. […]

[2] = tested on: neonatal cardiomyocytes; experiment: Cardiomyocyte proliferation (EdU assay); type: cell-based, rat; settings: drugs in medium
Description: Cell isolation: Primary neonatal rat cardiomyocytes and fibroblasts were isolated from the hearts of 1-2 day old Sprague-Dawley rat pups as described previously with minor modifications. Briefly, the cardiac tissue was minced and digested with 80 units/mL collagenase II (Worthington) and 0.8 mg/mL pancreatin (Sigma) at 37° C. in a water bath. Neonatal calf serum (NCS) was applied to inactivate enzymatic activity in the digested cell mixture. The cell solution was filtered through 100 µm mesh and centrifuged at 2200 rpm for 3 minutes. The cell pellets were suspended in 1 mL NCS and further separated by Percoll density gradient centrifugation. […] Cell culture and evaluation of drug effects in vitro: The drug effects on cardiomyocyte viability and proliferation were evaluated. Isolated cardiomyocytes were calculated and seeded on 0.1% gelatin-coated twenty-four well tissue culture plate with a density of 20, 000 cells/cm^2, and cultured at 37° C. in a humidified, 5% CO2 incubator overnight in DMEM/Medium 199 (4/1) containing 10% FBS, 1% NEAAs and 1% P/S. […] A live/dead kit (Invitrogen) was for cell viability assay, and images were taken using inverted microscope fluorescence microscopy (Zeiss Axio Observer Z1) to determine the cell numbers and the percentage of dead cells. […]

[3] = tested on: neonatal cardiac fibroblasts; experiment: Cardiac fibroblast myo-differentiation (α-SMA / F-actin staining); type: cell-based, rat; settings: drugs in medium, day 5
Description: as §1, with “centrifugation. A two-layer density gradient was formed consisting of 40.5% Percoll (GE17-0891-01, Sigma) solution in the top layer and 58.5% Percoll solution in the bottom layer.” for “centrifugation.”
The drug effects on cardiac fibroblast proliferation and myo-differentiation were evaluated. Fibroblasts were seeded on twenty-four well tissue culture plate with a density of 5000 cells/cm^2 and cultured overnight in DMEM containing 10% FBS and 1% P/S. On the next day, the culture medium was replaced by the fresh medium containing F and R at the determined concentrations and combinations, and the medium was changed every other day. […]
(§2) The effects of drugs released from FR/NPs and FR/NPs-µGel particles 12 were evaluated using the methods mentioned above. […]

[4] = tested on: Human umbilical vein endothelial cells (HUVECs); experiment: Endothelial cell proliferation (MTS assay); type: cell-based
Description: The drug effects on EC proliferation and network formation were evaluated. Human umbilical vein endothelial cells (HUVECs) were seeded on 0.1% gelatin-coated 24-well plates with a density of 5, 000 cells/cm^2 and cultured overnight in DMEM containing 10% FBS and 1% P/S. On the next day, the culture medium was replaced by the fresh medium containing F and R at the determined concentrations and combinations, and the medium was changed every other day. MTS cell proliferation assay was performed on day 1, 3 and 5. In addition, the ECs network formation was examined on growth factor reduced Matrigel according to the manufacturer's instructions (cat# CB-40230C, Thermo Fisher Scientific). Briefly, 24-well plates were coated with Matrigel. ECs were digested and plated onto a layer of Matrigel at a density of 3×10^5 cells/well in M199 medium containing 1% FBS and […], with the addition of F and R. Vascular endothelial growth factor (VEGF, 20 ng/mL) was used as a positive control. After 16 hours of culture, cells were stained with calcein acetoxymethyl ester (calcein-AM) and observed with an inverted fluorescent microscope. The number of tubular structures, junctions and meshes were analyzed by Image J with the Angiogenesis Analyzer plugin (n = 4-6 per group).

[5] = tested on: cardiac fibroblasts; experiment: Cardiac fibroblast proliferation (MTS assay); type: cell-based, rat; settings: drugs in medium
Description: Cell isolation: Primary neonatal rat cardiomyocytes and fibroblasts were isolated from the hearts of 1-2 day old Sprague-Dawley rat pups as described previously with minor modifications. Briefly, the cardiac tissue was minced and digested with 80 units/mL collagenase II (Worthington) and 0.8 mg/mL pancreatin (Sigma) at 37° C. in a water bath. Neonatal calf serum (NCS) was applied to inactivate enzymatic activity in the digested cell mixture. The cell solution was filtered through 100 µm mesh and centrifuged at 2200 rpm for 3 minutes. The cell pellets were suspended in 1 mL NCS and further separated by Percoll density gradient centrifugation. A two-layer density gradient was formed consisting of 40.5% Percoll (GE17-0891-01, Sigma) solution in the top layer and 58.5% Percoll solution in the bottom layer. The cell suspension was layered on top of the gradient and centrifuged at 3000 rpm at room temperature for 30 minutes. […] The drug effects on cardiac fibroblast proliferation and myo-differentiation were evaluated. Fibroblasts were seeded on twenty-four well tissue culture plate with a density of 5000 cells/cm^2 and cultured overnight in DMEM containing 10% FBS and 1% P/S. On the next day, the culture medium was replaced by the fresh medium containing F and R at the determined concentrations and combinations, and the medium was changed every other day. […]

[6] = tested on: Human umbilical vein endothelial cells (HUVECs); experiment: Endothelial cell tubule network formation on Matrigel; type: cell-based; settings: drugs in medium, 16 hours
Description: The drug effects on EC proliferation and network formation were evaluated. Human umbilical vein endothelial cells (HUVECs) were seeded on 0.1% gelatin-coated 24-well plates with a density of 5, 000 cells/cm^2 and cultured overnight in DMEM containing 10% FBS and 1% P/S. On the next day, the culture medium was replaced by the fresh medium containing F and R at the determined concentrations and combinations, and the medium was changed every other day. MTS cell proliferation assay was performed on day 1, 3 and 5. In addition, the ECs network formation was examined on growth factor reduced Matrigel according to the manufacturer’s instructions (cat# CB-40230C, Thermo Fisher Scientific). Briefly, 24-well plates were coated with Matrigel. ECs were digested and plated onto a layer of Matrigel at a density of 3×10^5 cells/well in M199 medium containing 1% FBS and 1% P/S, with the addition of F and R. Vascular endothelial growth factor (VEGF, 20 ng/mL) was used as a positive control. After 16 hours of culture, cells were stained with calcein acetoxymethyl ester (calcein-AM) and observed with an inverted fluorescent microscope. The number of tubular structures, junctions and meshes were analyzed by Image J with the Angiogenesis Analyzer plugin (n = 4-6 per group).
as §2

Structure (SMILES)	viability at 20 µM [1] [%]	proliferation of neonatal cardiomyocytes, times as many cells as the control [2]	myo-differentiation of cardiac fibroblasts [3]	optimal concentration to enhance EC proliferation [4] [µM]	EC proliferation ([4]; drugs in medium)	fibroblast proliferation [5]	EC network formation [6]
Cc1cccc(-c2n[nH]cc2-c2ccc3ncccc3n2)n1 [R, 2-(3-(6-Methylpyridine-2-yl)-1H-pyrazol-4-yl)-1,5-naphthyridine]	80	six	could prevent myo-differentiation of cardiac fibroblasts	20	dose-dependent effects to enhance EC proliferation	opposite inhibitory effects	not with R alone
C=C[C@@]1(C)CC(=O)[C@]2(O)[C@@]3(C)[C@@H](O)CCC(C)(C)[C@@H]3[C@H](O)[C@H](OC(C)=O)[C@@]2(C)O1 [F, Forskolin]	80	–	–	20	–	–	–
